Data published in PMC12136037, “Type II kinase inhibitors that target Parkinson’s disease–associated LRRK2” (Science Advances, 2025).

Legend:
[1] = molecular target: T1, ~100 representative kinases (Homo sapiens, UniProt Q9UK32); assay: DSF 100 kinase selectivity screen; type: binding; conditions: Protein RPS6KA6; DSF; average of three replicates;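 also: compound tested at 20 µM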
T1 construct: Recombinant protein kinase domains with a concentration of 2 μM
Outline: (§1)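 Each kinase domain, at 2 μM, is mixed with 20 μM test compound and SYPRO Orange in Hepes (20 mM, pH 7.5) with 500 mM NaCl. Temperature is then raised at 3°C/min and fluorescence-monitored unfolding yields the melting temperature change, ΔTm in degrees Celsius.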

[2] = molecular target: T2, ~100 representative kinases (Homo sapiens, UniProt Q9BVS4); assay: DSF 100 kinase selectivity screen; type: binding; conditions: Protein RIOK2; DSF; average of three replicates;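 also: compound tested at 20 µM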
T2 construct: Recombinant protein kinase domains with a concentration of 2 μM
T2 sequence (Q9BVS4 whole entry, the tested form may be a part): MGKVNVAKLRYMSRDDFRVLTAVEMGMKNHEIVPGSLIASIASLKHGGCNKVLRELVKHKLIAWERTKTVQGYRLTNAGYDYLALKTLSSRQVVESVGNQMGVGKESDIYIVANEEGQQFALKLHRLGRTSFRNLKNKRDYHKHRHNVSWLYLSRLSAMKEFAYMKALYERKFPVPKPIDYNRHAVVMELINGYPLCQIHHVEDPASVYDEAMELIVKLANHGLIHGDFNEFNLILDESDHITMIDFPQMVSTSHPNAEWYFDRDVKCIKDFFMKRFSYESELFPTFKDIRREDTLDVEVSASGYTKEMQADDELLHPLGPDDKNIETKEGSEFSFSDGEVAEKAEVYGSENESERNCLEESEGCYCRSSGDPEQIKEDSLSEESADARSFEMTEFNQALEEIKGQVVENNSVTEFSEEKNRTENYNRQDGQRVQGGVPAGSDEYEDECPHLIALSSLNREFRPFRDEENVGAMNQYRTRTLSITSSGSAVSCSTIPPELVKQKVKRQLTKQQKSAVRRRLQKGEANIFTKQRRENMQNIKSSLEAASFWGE
Outline: as §1

T1 sequence (Q9UK32 whole entry, the tested form may be a part): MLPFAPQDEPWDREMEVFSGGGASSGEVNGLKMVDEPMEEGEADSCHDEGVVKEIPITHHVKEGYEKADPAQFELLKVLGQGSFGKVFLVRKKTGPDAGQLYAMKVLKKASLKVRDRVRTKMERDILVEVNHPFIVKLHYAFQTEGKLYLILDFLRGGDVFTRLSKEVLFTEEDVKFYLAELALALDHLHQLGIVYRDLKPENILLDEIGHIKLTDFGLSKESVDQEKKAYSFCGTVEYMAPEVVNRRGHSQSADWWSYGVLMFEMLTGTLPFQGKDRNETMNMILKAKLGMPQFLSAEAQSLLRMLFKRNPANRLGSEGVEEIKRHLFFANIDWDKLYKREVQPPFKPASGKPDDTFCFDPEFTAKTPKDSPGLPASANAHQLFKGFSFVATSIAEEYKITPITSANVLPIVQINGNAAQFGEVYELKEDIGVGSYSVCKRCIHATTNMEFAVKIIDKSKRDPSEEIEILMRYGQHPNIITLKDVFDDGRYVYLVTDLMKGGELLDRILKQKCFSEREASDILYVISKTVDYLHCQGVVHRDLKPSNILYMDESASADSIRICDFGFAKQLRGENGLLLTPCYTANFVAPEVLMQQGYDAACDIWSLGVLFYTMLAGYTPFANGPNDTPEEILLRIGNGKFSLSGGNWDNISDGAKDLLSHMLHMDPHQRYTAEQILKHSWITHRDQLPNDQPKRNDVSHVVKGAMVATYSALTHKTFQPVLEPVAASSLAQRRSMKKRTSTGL

Question: How did the dTm [1] turn out when `Cc1ccc(C(=O)Nc2ccc(CN3CCN(C)CC3)c(C(F)(F)F)c2)cc1C#Cc1c[nH]c2ncnc(N3CCOCC3)c12` [Compound 1] was run?
Answer: The dTm was -0.02 K.

Question: What about the dTm [2] of the same compound?
Answer: The dTm was 1.81 K.
